Measured values taken from ChEMBL document CHEMBL3259791, “Discovery of (E)-3-((styrylsulfonyl)methyl)pyridine and (E)-2-((styrylsulfonyl)methyl)pyridine derivatives as anticancer agents: synthesis, structure-activity relationships, and biological activities” (J Med Chem, 2014).
One block for each molecule: values may come before it. Activity calls are given as the source filed them. The rule behind the calls is not given here.

How the values were obtained:
[1] = tested on: A2780; assay: Antiproliferative activity against human A2780 cells assessed as cell growth inhibition after 72 hrs by MTT assay; format: functional; conditions: A2780, 72 h
[2] = tested on: MCF7; assay: Antiproliferative activity against human MCF7 cells assessed as cell growth inhibition after 72 hrs by MTT assay; format: functional; conditions: MCF7, 72 h
[3] = tested on: HCT-116; assay: Antiproliferative activity against human HCT116 cells assessed as cell growth inhibition after 72 hrs by MTT assay; format: functional; conditions: HCT-116, 72 h
[4] = Octanol-buffer partition coefficient, log D of the compound at pH 7.4 by shake-flask method; format: physicochemical
[5] = Aqueous solubility of the compound by turbidimetric solubility assay; format: physicochemical; conditions: buffer
[6] = Apparent permeability across apical to basolateral side in human Caco2 cells; format: ADME, cell-based; conditions: Caco-2
[7] = Apparent permeability across basolateral to apical side in human Caco2 cells; format: ADME, cell-based; conditions: Caco-2
[8] = Half life in rat liver microsomes; format: ADME
[9] = target: Voltage-gated inwardly rectifying potassium channel KCNH2 (Homo sapiens, UniProt Q12809); assay: Inhibition of human ERG expressed in CHO cells
[10] = Cmax in mouse at 40 mg/kg, po after 24 hrs; format: ADME, organism-based; design: dose 40 mg/kg, route oral; conditions: in vivo
[11] = AUC (0 to t) in mouse at 40 mg/kg, po after 24 hrs; format: ADME, organism-based; design: time < 24 hr, dose 40 mg/kg, route oral; conditions: plasma
[12] = Elimination half life in mouse at 40 mg/kg, po after 24 hrs; format: ADME, organism-based; design: dose 40 mg/kg, route oral; conditions: in vivo, read-out: beta t1/2 (converted)
[13] = Oral bioavailability (0 to t) in mouse at 40 mg/kg after 24 hrs; format: ADME, organism-based; conditions: in vivo
[14] = Oral bioavailability (0 to infinity) in mouse at 40 mg/kg after 24 hrs; format: ADME, organism-based; conditions: in vivo
[15] = tested on: MCF7; assay: Selectivity ratio of IC50 for human WI38 cells to IC50 for ER positive human MCF7 cells; format: functional
[16] = tested on: WI-38; assay: Selectivity ratio of IC50 for human WI38 cells to IC50 for ER negative human MDA-MB-231 cells; format: functional
[17] = tested on: HeLa; assay: Selectivity ratio of IC50 for human WI38 cells to IC50 for human HeLa cells; format: functional
[18] = tested on: PANC-1; assay: Selectivity ratio of IC50 for human WI38 cells to IC50 for human PANC1 cells; format: functional
[19] = tested on: DU-145; assay: Selectivity ratio of IC50 for human WI38 cells to IC50 for AR negative human DU145 cells; format: functional
[20] = tested on: LNCaP; assay: Selectivity ratio of IC50 for human WI38 cells to IC50 for AR positive human LNCAP cells; format: functional
[21] = tested on: HCT-116; assay: Selectivity ratio of IC50 for human WI38 cells to IC50 for human HCT116 cells; format: functional
[22] = tested on: A2780; assay: Selectivity ratio of IC50 for human WI38 cells to IC50 for human A2780 cells; format: functional
[23] = tested on: MCF7; assay: Ratio of ON01910 IC50 to compound IC50 for ER positive human MCF7 cells; format: functional
[24] = tested on: MDA-MB-231; assay: Ratio of ON01910 IC50 to compound IC50 for ER negative human MDA-MB-231 cells; format: functional
[25] = tested on: HeLa; assay: Ratio of ON01910 IC50 to compound IC50 for human HeLa cells; format: functional
[26] = tested on: PANC-1; assay: Ratio of ON01910 IC50 to compound IC50 for human PANC1 cells; format: functional
[27] = tested on: DU-145; assay: Ratio of ON01910 IC50 to compound IC50 for AR negative human DU145 cells; format: functional
[28] = tested on: LNCaP; assay: Ratio of ON01910 IC50 to compound IC50 for AR positive human LNCAP cells; format: functional
[29] = tested on: HCT-116; assay: Ratio of ON01910 IC50 to compound IC50 for human HCT116 cells; format: functional
[30] = tested on: A2780; assay: Ratio of ON01910 IC50 to compound IC50 for human A2780 cells; format: functional
[31] = tested on: MCF7; assay: Antiproliferative activity against ER positive human MCF7 cells assessed as cell growth inhibition after 72 hrs by MTT assay; format: functional; conditions: MCF7, 72 h
[32] = tested on: MDA-MB-231; assay: Antiproliferative activity against ER negative human MDA-MB-231 cells assessed as cell growth inhibition after 72 hrs by MTT assay; format: functional; conditions: MDA-MB-231, 72 h
[33] = tested on: HeLa; assay: Antiproliferative activity against human HeLa cells assessed as cell growth inhibition after 72 hrs by MTT assay; format: functional
[34] = Antiproliferative activity against human PANC1 cells assessed as cell growth inhibition after 72 hrs by MTT assay; format: functional; conditions: PANC-1, 72 h
[35] = tested on: LNCaP; assay: Antiproliferative activity against AR positive human LNCAP cells assessed as cell growth inhibition after 72 hrs by MTT assay; format: functional
[36] = tested on: DU-145; assay: Antiproliferative activity against AR negative human DU145 cells assessed as cell growth inhibition after 72 hrs by MTT assay; format: functional; conditions: DU-145, 72 h
[37] = tested on: WI-38; assay: Antiproliferative activity against human WI38 cells assessed as cell growth inhibition after 72 hrs by MTT assay; format: functional; conditions: WI-38, 72 h
[38] = Dissociation constant, pKa of the compound by pH-metric method; format: physicochemical
[39] = tested on: A2780; assay: Induction of apoptosis in human A2780 cells assessed as caspase-3/7 activation at […] after 24 hrs by using Apo-ONE homogeneous caspase-3/7 kit; format: functional, cell-based
[40] = tested on: WI-38; assay: Induction of apoptosis in human WI38 cells assessed as caspase-3/7 activation up to 1 uM after 24 hrs by using Apo-ONE homogeneous caspase-3/7 kit; format: functional, cell-based
[41] = tested on: A2780; assay: Reduction in CDC25C level in human A2780 cells at […] after 24 hrs by Western blot analysis; format: functional, cell-based
[42] = tested on: A2780; assay: Reduction in Mcl1 level in human A2780 cells at […] after 24 hrs by Western blot analysis; format: functional, cell-based
[43] = Cmax in mouse at 10 mg/kg, po after 24 hrs; format: ADME, organism-based; design: dose 10 mg/kg, route oral; conditions: in vivo
[44] = AUC (0 to t) in mouse at 10 mg/kg, po after 24 hrs; format: ADME, organism-based; design: time < 24 hr, dose 10 mg/kg, route oral; conditions: plasma
[45] = Elimination half life in mouse at 10 mg/kg, po after 24 hrs; format: ADME, organism-based; design: dose 10 mg/kg, route oral; conditions: in vivo, read-out: beta t1/2 (converted)
[46] = tested on: HCT-116; assay: Antitumor activity against human HCT116 cells xenografted in mouse assessed as delay in tumor growth at 33.3 mg/kg, ip daily 5 days/week for 2 weeks; format: functional, organism-based; design: dose 33.3 mg/kg
[47] = tested on: HCT-116; assay: Antitumor activity against human HCT116 cells xenografted in mouse assessed as delay in tumor growth at 100 mg/kg, ip daily 5 days/week for 2 weeks; format: functional, organism-based; design: dose 100 mg/kg
[48] = Oral bioavailability (0 to t) in mouse at 10 mg/kg after 24 hrs; format: ADME, organism-based; conditions: in vivo

Sequence of Voltage-gated inwardly rectifying potassium channel KCNH2 (Q12809 whole entry): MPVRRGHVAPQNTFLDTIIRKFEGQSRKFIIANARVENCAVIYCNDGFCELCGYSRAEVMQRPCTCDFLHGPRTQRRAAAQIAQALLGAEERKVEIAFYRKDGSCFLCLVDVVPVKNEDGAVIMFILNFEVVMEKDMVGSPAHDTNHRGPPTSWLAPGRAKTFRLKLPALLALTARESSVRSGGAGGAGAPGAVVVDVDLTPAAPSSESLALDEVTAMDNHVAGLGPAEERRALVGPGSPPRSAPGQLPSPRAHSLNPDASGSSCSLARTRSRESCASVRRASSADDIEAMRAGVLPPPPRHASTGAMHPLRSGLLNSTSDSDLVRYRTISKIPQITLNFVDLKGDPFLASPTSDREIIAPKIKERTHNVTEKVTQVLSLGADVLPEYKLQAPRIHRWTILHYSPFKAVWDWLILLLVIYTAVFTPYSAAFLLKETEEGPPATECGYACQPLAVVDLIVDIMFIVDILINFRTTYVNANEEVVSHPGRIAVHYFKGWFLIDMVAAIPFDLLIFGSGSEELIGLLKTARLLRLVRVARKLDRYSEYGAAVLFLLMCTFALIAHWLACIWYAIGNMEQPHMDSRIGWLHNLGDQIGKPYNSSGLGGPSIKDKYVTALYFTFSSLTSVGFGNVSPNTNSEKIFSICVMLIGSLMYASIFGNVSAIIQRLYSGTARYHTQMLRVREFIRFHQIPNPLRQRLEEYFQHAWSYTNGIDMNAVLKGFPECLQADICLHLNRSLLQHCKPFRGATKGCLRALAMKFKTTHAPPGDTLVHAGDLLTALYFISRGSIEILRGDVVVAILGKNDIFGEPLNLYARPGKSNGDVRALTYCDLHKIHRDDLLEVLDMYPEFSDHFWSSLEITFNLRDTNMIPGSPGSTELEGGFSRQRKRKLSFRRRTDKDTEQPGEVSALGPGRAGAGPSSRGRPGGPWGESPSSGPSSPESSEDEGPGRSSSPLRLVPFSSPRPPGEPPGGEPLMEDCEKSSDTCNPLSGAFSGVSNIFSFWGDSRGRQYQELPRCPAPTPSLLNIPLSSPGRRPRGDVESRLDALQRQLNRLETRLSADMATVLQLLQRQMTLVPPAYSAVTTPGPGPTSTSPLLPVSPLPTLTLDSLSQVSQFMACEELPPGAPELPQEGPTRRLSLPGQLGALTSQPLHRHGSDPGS

GI50 [1]: > 10000 nM | GI50 [2]: 9970 nM | GI50 [3]: > 10000 nM
Structure (SMILES): COc1cc(OC)c(/C=C/S(=O)(=O)Cc2ccc(OC)c([N+](=O)[O-])n2)c(OC)c1

GI50 [1]: 6910 nM | GI50 [2]: 5710 nM | GI50 [3]: 5450 nM
Structure (SMILES): CCOC(=O)CNc1nc(CS(=O)(=O)/C=C/c2c(OC)cc(OC)cc2OC)ccc1OC

GI50 [2]: 6410 nM | GI50 [3]: 4400 nM
Structure (SMILES): COc1cc(OC)c(C(C(c2cnc(OC)c([N+](=O)[O-])c2)S(C)(=O)=O)N2CCCCC2)c(OC)c1 (stereo not given)

GI50 [1]: > 10000 nM | GI50 [2]: > 10000 nM | GI50 [3]: > 10000 nM
Structure (SMILES): CCCS(=O)(=O)Nc1cc(CS(=O)(=O)/C=C/c2c(OC)cc(OC)cc2OC)cnc1OC

GI50 [2]: > 10000 nM | GI50 [3]: > 10000 nM
Structure (SMILES): CCN(C(C)=O)c1cc(CS(=O)(=O)/C=C/c2c(OC)cc(OC)cc2OC)cnc1OC

GI50 [1]: 7100 nM | GI50 [2]: 7500 nM | GI50 [3]: 8220 nM
Structure (SMILES): COc1cc(OC)c(/C=C/S(=O)(=O)Cc2cnc(OC)c(NC(C)=O)c2)c(OC)c1

GI50 [1]: 376 nM | GI50 [3]: 410 nM
Structure (SMILES): COc1cc(OC)c(/C=C/S(=O)(=O)Cc2cnc(OC)c(NCC(=O)O)c2)c(OC)c1

logD [4]: 2.34 | solubility kinetic [5]: > 100 µM | Papp A→B [6]: 42.3 ×10⁻⁶ cm/s | Papp B→A [7]: 21.5 ×10⁻⁶ cm/s | half-life [8]: 0.333 h | Cmax [10]: 3000 nM | AUC(0-t) at 24 h [11]: 24.6 µM·h | half-life [12]: 61.8 h | bioavailability [13]: 28% | bioavailability [14]: 100% | GI50 [1]: 5 nM | GI50 [2]: 6 nM | GI50 [3]: 5 nM | GI50 [31]: 6 nM | GI50 [32]: 6 nM | GI50 [33]: 4 nM | GI50 [35]: 3 nM | GI50 [36]: 5 nM | pKa [38]: 2.39
Structure (SMILES): COc1cc(OC)c(/C=C/S(=O)(=O)Cc2cnc(OC)c(N)c2)c(OC)c1
IC50 [9]: > 25000 nM | Ratio IC50 [15]: >1400 | Ratio IC50 [16]: >1400 | Ratio IC50 [17]: >1400 | Ratio IC50 [18]: >1400 | Ratio IC50 [19]: >1400 | Ratio IC50 [20]: >1400 | Ratio IC50 [21]: >1400 | Ratio IC50 [22]: >1400 | Ratio IC50 [23]: 10 | Ratio IC50 [24]: 10 | Ratio IC50 [25]: 10 | Ratio IC50 [26]: 10 | Ratio IC50 [27]: 10 | Ratio IC50 [28]: 10 | Ratio IC50 [29]: 10 | Ratio IC50 [30]: 10 | GI50 [34]: < 1 nM | GI50 [37]: > 10000 nM

Structure (SMILES): COc1cc(OC)c(/C=C/S(=O)(=O)Cc2ccc(OC)c(NCC(=O)O)c2)c(OC)c1
Activity [39]: Active | Activity [40]: inactive | inhibition [41]: Active | inhibition [42]: Active

GI50 [1]: 253 nM | GI50 [2]: 545 nM | GI50 [3]: 329 nM
Structure (SMILES): COc1cc(OC)c(/C=C/S(=O)(=O)Cc2ccc(OC)c(NCC(=O)O)n2)c(OC)c1

logD [4]: 1.52 | solubility kinetic [5]: > 100 µM | Papp A→B [6]: 8.9 ×10⁻⁶ cm/s | Papp B→A [7]: 47.1 ×10⁻⁶ cm/s | half-life [8]: 1.17 h | Cmax [43]: 6300 nM | AUC(0-t) at 24 h [44]: 7.2 µM·h | half-life [45]: 3 h | GI50 [1]: 317 nM | GI50 [2]: 780 nM | GI50 [3]: 570 nM | GI50 [31]: 780 nM | GI50 [32]: 671 nM | GI50 [33]: 682 nM | pKa [38]: 7.66
Structure (SMILES): COc1cc(OC)c(/C=C/S(=O)(=O)Cc2cnc(OC)c(NS(C)(=O)=O)c2)c(OC)c1
Activity [46]: Active | Activity [47]: Active | GI50 [34]: 875 nM | GI50 [37]: > 10000 nM

GI50 [1]: > 10000 nM | GI50 [2]: > 10000 nM | GI50 [3]: > 10000 nM
Structure (SMILES): CCS(=O)(=O)Nc1cc(CS(=O)(=O)/C=C/c2c(OC)cc(OC)cc2OC)cnc1OC

GI50 [1]: 7210 nM | GI50 [2]: 5220 nM | GI50 [3]: 7430 nM
Structure (SMILES): COc1cc(OC)c(/C=C/S(=O)(=O)Cc2cnc(OC)c([N+](=O)[O-])c2)c(OC)c1

Cmax [43]: 400 nM | AUC(0-t) at 24 h [44]: 1 µM·h | half-life [45]: 2.6 h | bioavailability [48]: 9%
Structure (SMILES): COc1cc(OC)c(/C=C/S(=O)(=O)Cc2ccc(OC)c(NCC(=O)[O-])c2)c(OC)c1.[Na+] [RIGOSERTIB SODIUM]

GI50 [1]: 500 nM | GI50 [2]: 660 nM | GI50 [3]: 320 nM
Structure (SMILES): COc1cc(OC)c(/C=C/S(=O)(=O)Cc2ccc(OC)c(NC(C)=O)n2)c(OC)c1

GI50 [2]: > 10000 nM | GI50 [3]: 6590 nM
Structure (SMILES): COc1cc(OC)c(/C=C/S(=O)(=O)Cc2cnc(OC)c(NCC(N)=O)c2)c(OC)c1

GI50 [1]: 409 nM | GI50 [2]: 940 nM | GI50 [3]: 517 nM
Structure (SMILES): CCOC(=O)CNc1cc(CS(=O)(=O)/C=C/c2c(OC)cc(OC)cc2OC)cnc1OC
